Values joined by “and” are separate entries in the source; they are usually repeats but may differ in a detail not shown here. Equal entries are not always repeated. Structures can show the parent of a compound that is named as a salt. Where two headings read alike, the source gives them in different places.
Legend:
[1] = test system: T. cruzi CAI/72 strain; assay: Antiparasitic activity in C2C12 cells infected with T. cruzi CAI/72 (image-based assay); type: cell-based; conditions: for EC50: mean of three experiments in triplicate (n = 9) ± SD
Description: Antiparasitic activity and cytotoxicity of compounds were determined as described before (da Silva et al., Boudreau et al.). Mouse myoblasts cell line C2C12 (ATCCCRL-1772), were maintained in high glucose (4.5 g/L glucose) Dulbecco’s modified Eagle’s medium (DMEM Gibco), supplemented with 1% penicillin–streptomycin 10,000 U/mL (Gibco) and 5% fetal bovine serum (FBS, Sigma-Aldrich) at 37 °C with 5% CO2. parasites (CAI/72 strain, DTU TcI) were maintained by weekly coinfection with C2C12 cells. For all activity assays, C2C12 cells were infected at a 10:1 parasite-to-cell ratio with culture-derived trypomastigotes, which were harvested from the supernatant of infected C2C12 cells. After adding compounds to 384-well black clear-bottom plates (Greiner cat. no. 781091), trypomastigotes (7000 parasites/well) and C2C12 cells (700 cells/well) were seeded in a total volume of 50 μL of DMEM per well in the 384-well plates. Compounds were first tested at 10 μM. […] Plates were imaged with the automated ImageXpress MicroXL microscope (Molecular Devices) and analyzed by MetaXpress software (Molecular Devices) using a custom module optimized for this assay. Infection levels (parasites per host cell) were normalized to the positive control (40 μM BNZ) and negative control (DMSO). Antiparasitic activity (EC50) ± standard deviation (SD) and host cell cytotoxicity (C2C12 viability) values were determined from the DRC using Prism software (GraphPad Software, La Jolla, CA). Every assay has three biological replicates, each in triplicates (n = 9 data points).

[2] = Host cell cytotoxicity (C2C12 viability); type: cell-based, Mouse; conditions: mouse; for viability at 48 h, 10 µM: < 50% viability considered cytotoxic; for CC50 at 48 h: viability calculated at 10 μM
Description: Antiparasitic activity and cytotoxicity of compounds were determined as described before (da Silva et al., Boudreau et al.). Mouse myoblasts cell line C2C12 (ATCCCRL-1772), were maintained in high glucose (4.5 g/L glucose) Dulbecco’s modified Eagle’s medium (DMEM Gibco), supplemented with 1% penicillin–streptomycin 10,000 U/mL (Gibco) and 5% fetal bovine serum (FBS, Sigma-Aldrich) at 37 °C with 5% CO2. parasites (CAI/72 strain, DTU TcI) were maintained by weekly coinfection with C2C12 cells. For all activity assays, C2C12 cells were infected at a 10:1 parasite-to-cell ratio with culture-derived trypomastigotes, which were harvested from the supernatant of infected C2C12 cells. After adding compounds to 384-well black clear-bottom plates (Greiner cat. no. 781091), trypomastigotes (7000 parasites/well) and C2C12 cells (700 cells/well) were seeded in a total volume of 50 μL of DMEM per well in the 384-well plates. Compounds were first tested at 10 μM. […] After 48 h at 37 °C and 5% CO2, plates were fixed with 4% formaldehyde solution for at least 1 h, washed with 1× PBS, and stained with 5 μg/mL of 4′,6-diamidino-2-phenylindole (DAPI) for at least 1 h prior to reading. Plates were imaged with the automated ImageXpress MicroXL microscope (Molecular Devices) and analyzed by MetaXpress software (Molecular Devices) using a custom module optimized for this assay. Infection levels (parasites per host cell) were normalized to the positive control (40 μM BNZ) and negative control (DMSO). Antiparasitic activity (EC50) ± standard deviation (SD) and host cell cytotoxicity (C2C12 viability) values were determined from the DRC using Prism software (GraphPad Software, La Jolla, CA). Every assay has three biological replicates, each in triplicates (n = 9 data points).

[3] = target: T1, recombinant Cz (cruzain) (Trypanosoma cruzi, UniProt P25779); assay: biochemical; conditions: for SICz: ratio between IC50 hCatL and IC50 Cz; for inhibition at 10 µM: read-out: Cz inhibition (%), 10 µM; for Cz inhibition (%): 10 µM
T1 construct: Cz was expressed and purified as described in da Silva et al; made in house
Description: The screening assay was performed using 1 nM of Cz diluted in 0.1 M sodium acetate pH 5.5, 1 mM dithiothreitol (DTT), and 0.01% Triton X-100. Cz was expressed and purified as described in da Silva et al. The reaction starts after 10 min incubating the enzyme with the compounds (10 μM), when adding 2.5 μM of the substrate Z-FR-AMC final concentration (Z-Phe-Arg-amidomethylcoumarin, Sigma-Aldrich, C9521) diluted in the same assay buffer (final volume of 30 μL). The experiment was performed for 10 min. […] The DRC was performed with at least nine different concentrations of the inhibitors, diluted by 2-fold serial dilution, ranging from […] to 10 μM.
(§1) All experiments were accomplished in a 384-well black microplate, using a Synergy HTX (Biotek) plate reader at 25 °C with absorption/emission wavelengths of 360/460 nm. All assays were performed in triplicate wells and DMSO was used as a vehicle control. Enzymatic activity was measured and normalized to DMSO controls, and the inhibitor E-64 (10 μM) was used as a positive control for all assays. All experiments were performed in triplicates, with at least two independent assays (n = 6 data points). IC50 values were determined through nonlinear regression. Obtained data were treated and analyzed using GraphPad Prism 9.0 (GraphPad Software, La Jolla, California).

[4] = target: T2, Recombinant human cathepsin L (hCatL) (Homo sapiens, UniProt P07711); assay: Human cathepsin L inhibition assay (Z-FR-AMC substrate); type: biochemical
T2 construct: purchased R&D Systems 952-CY
Description: Compounds were screened at 10 μM. […] The experiment was performed for 30 min.
as §1

[5] = Trypanosoma cruzi, 10 µM, C2C12 infected cells, read-out: Anti-Tc CAI/72 activity (%)
[6] = C2C12 myoblast cells infected with trypomastigotes
[7] = mean of two experiments in triplicate (n = 6) ± SEM, read-out: IC50 Cz
[8] = mean of two experiments in triplicate (n = 6) ± SEM, read-out: IC50 hCatL
[9] = no DRC performed, bound from the screen at 10 µM, read-out: IC50 hCatL
[10] = Trypanosoma cruzi, C2C12, 48 h, read-out: EC50 Tc CAI/72, intracellular amastigotes in C2C12 cells, 48 h
[11] = read-out: EC50 Tc CAI/72, intracellular amastigotes in C2C12 cells, 48 h
[12] = IC50 Cz, single biological replicate (Figure 3), each of two biological replicates in triplicate
[13] = each of two biological replicates in triplicate, read-out: IC50 hCatL, single biological replicate (Figure 4)
[14] = Trypanosoma cruzi, C2C12, read-out: Anti-Tc CAI/72 activity (%)

T2 sequence (P07711 114-333): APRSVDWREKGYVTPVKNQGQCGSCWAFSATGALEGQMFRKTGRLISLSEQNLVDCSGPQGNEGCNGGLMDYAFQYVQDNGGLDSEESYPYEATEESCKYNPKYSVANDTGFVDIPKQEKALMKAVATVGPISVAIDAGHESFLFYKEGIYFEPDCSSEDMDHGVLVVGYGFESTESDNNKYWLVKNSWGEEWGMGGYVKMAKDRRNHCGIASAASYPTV
T1 sequence (P25779 123-337 limits assumed): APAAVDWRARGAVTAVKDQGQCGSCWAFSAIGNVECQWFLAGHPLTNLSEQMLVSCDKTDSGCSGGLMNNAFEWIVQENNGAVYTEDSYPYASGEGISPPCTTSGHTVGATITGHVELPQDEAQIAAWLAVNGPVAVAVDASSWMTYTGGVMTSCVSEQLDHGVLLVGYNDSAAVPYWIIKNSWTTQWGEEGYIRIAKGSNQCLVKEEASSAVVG

Compound: C/C(=N\NC(N)=S)c1cccc([N+](=O)[O-])c1 [Compound S1h, (E)-2-(1-(3-Nitrophenyl)ethylidene)hydrazine-1-carbothioamide]
- inhibition at 10 µM [1, 5]: 24.8%
- viability at 48 h, 10 µM [2, 6]: > 100%
- IC50 [3, 7]: 1.15 ± 0.74 nM
- SICz [3]: 164.83
- inhibition at 10 µM [3]: 100%
- inhibition at 10 µM [4]: 94.5%
- IC50 [4, 8]: 190 ± 18.4 nM

Compound: C/C(=N\Nc1nc(C)cs1)c1cccc([N+](=O)[O-])c1 [Compound S2h, (E)-4-Methyl-2-(2-(1-(3-nitrophenyl)ethylidene)hydrazineyl)thiazole Hydrochloride]
- inhibition at 10 µM [1, 5]: 28.8%
- viability at 48 h, 10 µM [2, 6]: > 100%
- IC50 [3, 7]: 1280 ± 1120 nM
- inhibition at 10 µM [3]: 96.9%
- inhibition at 10 µM [4]: 12.1%
- IC50 [4, 9]: > 10000 nM

Compound: C/C(=N\Nc1nc(C)cs1)c1cccc(Cl)c1 [Compound S2i, (E)-2-(2-(1-(3-Chlorophenyl)ethylidene)hydrazineyl)-4-methylthiazole]
- inhibition at 10 µM [1, 5]: 49.3%
- viability at 48 h, 10 µM [2, 6]: > 100%
- IC50 [3, 7]: 142 ± 79.2 nM
- inhibition at 10 µM [3]: 97.5%
- inhibition at 10 µM [4]: 24.7%
- IC50 [4, 9]: > 10000 nM

Compound: C/C(=N\NC(N)=[Se])c1ccc(Br)cc1 [Se1f, (E)-2-(1-(4-Bromophenyl)ethylidene)hydrazine-1-carboselenoamide]
- EC50 [1, 10]: < 1000 nM
- inhibition at 10 µM [1, 5]: 69.5%
- EC50 [1, 11]: 770 ± 170 nM
- viability at 48 h, 10 µM [2]: > 100%
- CC50 at 48 h [2]: > 10000 nM
- Cz inhibition (%) [3]: 101.08%
- IC50 [3, 12]: 17.8 nM and 10.7 nM
- IC50 [3, 7]: 14.3 ± 3.57 nM
- SICz [3]: 7.42
- inhibition at 10 µM [3]: > 85%
- inhibition at 10 µM [4]: 97.3%
- IC50 [4, 13]: 91.3 nM and 121 nM
- IC50 [4, 8]: 106 ± 14.9 nM

Compound: C/C(=N\NC(N)=[Se])c1cccc([N+](=O)[O-])c1 [Se1h, (E)-2-(1-(3-Nitrophenyl)ethylidene)hydrazine-1-carboselenoamide]
- inhibition at 10 µM [1, 5]: 41%
- viability at 48 h, 10 µM [2]: 97.3%
- IC50 ([3]; IC50 Cz, mean of two experiments in triplicate (n = 6) ± SEM): 0.91 ± 0.18 nM
- SICz [3]: 10.22
- inhibition at 10 µM [3]: 104%
- inhibition at 10 µM [4]: 98.7%
- IC50 [4, 8]: 9.32 ± 0.38 nM

Compound: C/C(=N\NC(N)=[Se])C12CC3CC(CC(C3)C1)C2 [Se1q, (E)-2-(1-((3r,5r,7r)-Adamantan-1-yl)ethylidene)hydrazine-1-carboselenoamide]
- inhibition at 10 µM [1, 14]: 16.2%
- viability at 48 h, 10 µM [2]: 78.6%
- inhibition at 10 µM [3]: 83.8%

Compound: C/C(=N\Nc1nc(C)c[se]1)c1ccc(C)cc1 [Se2a, (E)-4-Methyl-2-(2-(1-(4-tolyl)ethylidene)hydrazineyl)-1,3-selenazole Hydrochloride]
- inhibition at 10 µM [1, 14]: 11.1%
- viability at 48 h, 10 µM [2]: 91.9%
- inhibition at 10 µM [3]: 28.6%

Compound: COc1ccc(/C(C)=N/Nc2nc(C)c[se]2)cc1 [Se2b, (E)-2-(2-(1-(4-Methoxyphenyl)ethylidene)hydrazineyl)-4-methyl-1,3-selenazole Hydrochloride]
- inhibition at 10 µM [1, 14]: 12.1%
- viability at 48 h, 10 µM [2]: 94%
- inhibition at 10 µM [3]: 21.6%

Compound: C/C(=N\Nc1nc(C)c[se]1)c1ccc(C(F)(F)F)cc1 [Se2d, (E)-4-Methyl-2-(2-(1-(4-(trifluoromethyl)phenyl)ethylidene)hydrazineyl)-1,3-selenazole Hydrochloride]
- inhibition at 10 µM [1, 14]: 27.9%
- viability at 48 h, 10 µM [2]: 96.1%
- inhibition at 10 µM [3]: 95.2%

Compound: C/C(=N\Nc1nc(C)c[se]1)c1ccc(Br)cc1 [Se2f, (E)-2-(2-(1-(4-Bromophenyl)ethylidene)hydrazineyl)-4-methyl-1,3-selenazole Hydrochloride]
- inhibition at 10 µM [1, 14]: 18.3%
- viability at 48 h, 10 µM [2]: 87.7%
- inhibition at 10 µM [3]: 98.6%

Compound: COc1cccc(/C(C)=N/Nc2nc(C)c[se]2)c1 [Se2g, (E)-2-(2-(1-(3-Methoxyphenyl)ethylidene)hydrazineyl)-4-methyl-1,3-selenazole Hydrochloride]
- EC50 [1, 10]: 2670 ± 1130 nM
- inhibition at 10 µM [1, 14]: 55.1%
- viability at 48 h, 10 µM [2]: > 100%
- CC50 at 48 h [2]: > 10000 nM
- inhibition at 10 µM [3]: 62.9%

Compound: C/C(=N\Nc1nc(C)c[se]1)c1cccc(Cl)c1.Cl [Se2i, (E)-2-(2-(1-(3-Chlorophenyl)ethylidene)hydrazineyl)-4-methyl-1,3-selenazole Hydrochloride]
- EC50 [1, 10]: < 1000 nM
- inhibition at 10 µM [1, 14]: 65%
- EC50 [1, 11]: 530 ± 570 nM
- viability at 48 h, 10 µM [2]: > 100%
- CC50 at 48 h [2]: > 10000 nM
- Cz inhibition (%) [3]: 102.55%
- IC50 [3, 12]: 63.8 nM and 99.5 nM
- IC50 [3, 7]: 81.7 ± 17.9 nM
- SICz [3]: 5.55
- inhibition at 10 µM [3]: > 85%
- inhibition at 10 µM [4]: 98%
- IC50 [4, 13]: 458 nM and 449 nM
- IC50 [4, 8]: 453.7 ± 4.4 nM

Compound: C/C(=N\Nc1nc(C)c[se]1)c1ccc(F)c(F)c1 [Se2j, (E)-2-(2-(1-(3,4-Difluorophenyl)ethylidene)hydrazineyl)-4-methyl-1,3-selenazole Hydrochloride]
- inhibition at 10 µM [1, 14]: 18.7%
- viability at 48 h, 10 µM [2]: 38.3%
- inhibition at 10 µM [3]: 102%

Compound: C/C(=N\Nc1nc(C)c[se]1)c1csc2ccccc12 [Se2o, (E)-2-(2-(1-(Benzo[b]thiophen-3-yl)ethylidene)hydrazineyl)-4-methyl-1,3-selenazole Hydrochloride]
- inhibition at 10 µM [1, 14]: 42.3%
- viability at 48 h, 10 µM [2]: > 100%
- inhibition at 10 µM [3]: 101%

Compound: C/C(=N\Nc1nc(C)c[se]1)c1cc2ccccc2o1 [Se2p, (E)-2-(2-(1-(Benzofuran-2-yl)ethylidene)hydrazineyl)-4-methyl-1,3-selenazole Hydrochloride]
- inhibition at 10 µM [1, 14]: 26.6%
- viability at 48 h, 10 µM [2]: > 100%
- inhibition at 10 µM [3]: 98.5%

From PMC12320831, “Synthesis and Biological Evaluation of New Chalcogen Semicarbazone (S, Se) and Their Azole Derivatives against Chagas Disease” (Journal of Medicinal Chemistry, 2024)
